According to patent US20220288057A1, “CONJOINT THERAPY FOR TREATING SEIZURE DISORDERS” (XENON PHARMACEUTICALS INC., priority 2021, published 2022):
Where two headings read alike, the source gives them in different places.

What was measured:
[1] = system: AC-MES-induced tonic seizures in CF-1 mice; test: Mouse AC-MES assay (60 Hz, 40 mA, 0.2 s); type: in vivo; settings: for EC50: Compound A PO 0.5 h alone
Method: The efficacy of Compound A and its pharmacological interaction with Lacosamide was evaluated after oral dosing in the mouse maximal electroshock seizure (AC-MES) assay.
The objective of these studies was to characterize the dose-dependent anticonvulsant activity of Compound A and its pharmacological interaction with Lacosamide in the AC-MES assay in mice after a single oral administration of the compounds. The AC-MES assay is typically responsive to non-selective sodium channel blockers and potassium channel openers, and has been used as a translational animal model for partial onset seizures.
The anticonvulsant efficacy of Compound A and Lacosamide, and the effect of combining Compound A with Lacosamide were tested in the AC-MES assay in male CF-1 mice following a single PO dose. Plasma and brain samples were obtained to understand the relationship between drug concentration and efficacy.
AC-MES Assay: The MES test has been extensively used in the search for anticonvulsant substances (Piredda et al., Löscher et al., and White et al.). The MES test is considered a model for generalized tonic-clonic (GTC) seizures and provides an indication of a compound's ability to prevent seizure spread. In the AC-MES model, an electroshock of alternating current (60 Hz, 40 mA) was delivered for 0.2 seconds by corneal electrodes (HSE-HA Rodent Shocker, Harvard Apparatus, model no: 73-0105). CF-1 mice were dosed PO (according to Standard Operating Procedure (SOP) TECH-006) with vehicle or Compound A 0.5 hours before the electroshock assay Immediately prior to the electroshock stimulation, the animals' eyes were anesthetized with a topical application of 0.5% Alcaine solution (proparacaine hydrochloride, one drop per eye). Mice were then restrained, the corneal electrodes applied, and the shock administered. In naïve animals, the seizure is characterized by an initial generalized tonic seizure with hindlimb tonic extensor component. An animal is considered protected from MES-induced seizures upon abolition of the hindlimb tonic extensor component of the seizure and is then scored “0”. […] Mice were euthanized immediately after an initial seizure score assessment following the electroshock for plasma and brain collection.
Data Processing and Analysis: All statistics were calculated using GraphPad Prism version 8 software. Concentration response curves were generated using the Hill Langmuir equation:
Y=B+(T−B)×x^n/(IC50^n+x^n), Equation 1
where: • B=bottom, set as 0. • T=top, set as 1. • n=the Hill coefficient, constrained to less than zero. • IC50=concentration of a compound required for 50% inhibition in vitro.
All group data is expressed as mean. Between-group differences were analyzed using Kruskal-Wallis followed by Dunn's multiple comparison test.
Plasma and brain samples were obtained to understand the relationship between drug concentration and efficacy.
The Blinding and Randomization, Clinical Observations, AC-MES Assay, Sample Collection and Preparation, Plasma and Brain Samples Analysis, and Bioanalysis Procedures in Example 4 were identical to those used in Example 2.
Sample concentration determination and Data Processing and Analysis in Example 4 was identical to Example 2.

CF-1 mice = test: Observation for clinical signs in 6 Hz studies; type: in vivo, mouse; settings: Compound A 8 mg/kg PO, Study 3A
Method: Any qualitative changes from normal behavior were recorded.

[2] = Plasma and brain concentrations after MES testing (UHPLC-ESI-MS/MS); settings: CF-1, mouse, in vivo, po;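 note: brain and plasma were sampled from mice right after the efficacy test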
[3] = dosed in combination with Cenobamate vs alone

Cc1cc(N2CCc3cc(F)ccc3C2)cc(C)c1NC(=O)CC(C)(C)C [Compound A, N-[4-(6-fluoro-3,4-dihydro-1H-isoquinolin-2-yl)-2,6-dimethylphenyl]-3,3-dimethylbutanamide]
EC50 ([1]; composite of Studies 4A, 4B, 4C, 4F, read-out: EC50 for plasma): 296 nM | EC50 ([1]; Mus musculus, po, 0.5 h, composite of Studies 2A, 2B, 2C, read-out: EC50 for brain tissue): 471 nM | EC50 ([1]; Mus musculus, po, 0.5 h, composite of Studies 2A, 2B, 2C, read-out: EC50 for plasma): 300 nM | EC50 ([1]; Mus musculus, po, 0.5 h, composite of Studies 4A, 4B, 4C, 4F, read-out: EC50 for brain tissue): 470 nM | EC50 ([1]; Mus musculus, po, 0.5 h, composite of Studies 4A, 4B, 4C, 4F, read-out: EC50 for plasma): 300 nM | Fraction Seizing ([1]; Study 2A, Compound A 1 mg/kg PO, 0.5 h): 8/8 | Fraction Seizing ([1]; Study 2A, Compound A 5 mg/kg PO, 0.5 h): 7/8 | Fraction Seizing ([1]; Study 2A, Compound A 10 mg/kg PO, 0.5 h): 3/8 | Fraction Seizing ([1]; Study 2B, Compound A 5 mg/kg PO, 0.5 h): 0/8 | Fraction Seizing ([1]; Study 2B, Compound A 7.5 mg/kg PO, 0.5 h): 0/7 | Fraction Seizing ([1]; Study 2B, Compound A 10 mg/kg PO, 0.5 h): 1/9 | Fraction Seizing ([1]; Study 2C, Compound A 3 mg/kg PO, 0.5 h, alone): 2/8 | fraction of animals seizing ([1]; Study 4A, Compound A 1 mg/kg PO, 0.5 h): 8/8 | fraction of animals seizing ([1]; Study 4A, Compound A 5 mg/kg PO, 0.5 h): 7/8 | fraction of animals seizing ([1]; Study 4A, Compound A 10 mg/kg PO, 0.5 h): 3/8 | Fraction Seizing ([1]; Study 4A, Compound A 1 mg/kg single oral dose, 30 min pre-treatment, vehicle 8/8): 8/8 | Fraction Seizing ([1]; Study 4A, Compound A 5 mg/kg single oral dose, 30 min pre-treatment, vehicle 8/8): 7/8 | Fraction Seizing ([1]; Study 4A, Compound A 10 mg/kg single oral dose, 30 min pre-treatment, vehicle 8/8): 3/8 | fraction of animals seizing ([1]; Study 4B, Compound A 5 mg/kg PO, 0.5 h): 0/8 | fraction of animals seizing ([1]; Study 4B, Compound A 10 mg/kg PO, 0.5 h): 1/9 | Fraction Seizing ([1]; Study 4B, Compound A 5 mg/kg single oral dose, vehicle 8/8): 0/8 | Fraction Seizing ([1]; Study 4B, Compound A 7.5 mg/kg single oral dose, vehicle 8/8): 0/7 | Fraction Seizing ([1]; Study 4B, Compound A 10 mg/kg single oral dose, vehicle 8/8): 1/9 | fraction of animals seizing ([1]; Study 4C, Compound A 3 mg/kg PO, 0.5 h): 2/8 | Fraction Seizing ([1]; Study 4C, Compound A 3 mg/kg single oral dose, vehicle 8/8): 2/8 | fraction of animals seizing ([1]; Study 4F, Compound A 2 mg/kg PO, 0.5 h, alone): 5/8 | Fraction Seizing ([1]; Study 4F, Compound A 2 mg/kg PO alone, 0.5 h pre-treatment, vehicle 8/8): 5/8 | increase in the potency of Compound A, brain tissue [1, 3]: 14.2 fold | increase in the potency of Compound A, plasma [1, 3]: 33.3 fold | brain concentration of the one animal that showed tremor and was cold to the touch (CF-1 mice): 1650 nM | plasma concentration of the one animal that showed tremor and was cold to the touch (CF-1 mice): 1160 nM | concentration at 0.5 h ([2]; 1 mg/kg, Concentration Brain, Compound A 1 mg/kg PO single dose, tissue collection 0.5 hr): 270 nM | concentration at 2 h ([2]; 1 mg/kg, Concentration Brain, Compound A 1 mg/kg PO single dose, tissue collection 2 hr): 190 nM | concentration at 0.5 h ([2]; 1 mg/kg, Concentration Brain, Compound A 1 mg/kg PO, 0.5 hr): 97.9 ng/g | concentration at 2 h ([2]; 1 mg/kg, Concentration Brain, Compound A 1 mg/kg PO, 2 hr): 70.2 ng/g | concentration at 0.5 h ([2]; 1 mg/kg, Concentration Plasma, Compound A 1 mg/kg PO single dose, tissue collection 0.5 hr): 130 nM | concentration at 2 h ([2]; 1 mg/kg, Concentration Plasma, Compound A 1 mg/kg PO single dose, tissue collection 2 hr): 100 nM | concentration at 0.5 h ([2]; 1 mg/kg, Concentration Plasma, Compound A 1 mg/kg PO, 0.5 hr): 48.9 ng/mL | concentration at 2 h ([2]; 1 mg/kg, Concentration Plasma, Compound A 1 mg/kg PO, 2 hr): 35.8 ng/mL | concentration at 0.5 h ([2]; 2 mg/kg, Concentration Brain, Compound A 2 mg/kg PO single dose, tissue collection 0.5 hr): 360 nM | concentration at 2 h ([2]; 2 mg/kg, Concentration Brain, Compound A 2 mg/kg PO single dose, tissue collection 2 hr): 210 nM | concentration at 0.5 h ([2]; 2 mg/kg, Concentration Brain, Compound A 2 mg/kg PO, 0.5 hr): 132 ng/g | concentration at 2 h ([2]; 2 mg/kg, Concentration Brain, Compound A 2 mg/kg PO, 2 hr): 75.8 ng/g | concentration at 0.5 h ([2]; 2 mg/kg, Concentration Plasma, Compound A 2 mg/kg PO single dose, tissue collection 0.5 hr): 220 nM | concentration at 2 h ([2]; 2 mg/kg, Concentration Plasma, Compound A 2 mg/kg PO single dose, tissue collection 2 hr): 130 nM | concentration at 0.5 h ([2]; 2 mg/kg, Concentration Plasma, Compound A 2 mg/kg PO, 0.5 hr): 80.7 ng/mL | concentration at 2 h ([2]; 2 mg/kg, Concentration Plasma, Compound A 2 mg/kg PO, 2 hr): 46.7 ng/mL | concentration at 0.5 h ([2]; 4 mg/kg, Concentration Brain, Compound A 4 mg/kg PO single dose, tissue collection 0.5 hr): 640 nM | concentration at 2 h ([2]; 4 mg/kg, Concentration Brain, Compound A 4 mg/kg PO single dose, tissue collection 2 hr): 360 nM | concentration at 0.5 h ([2]; 4 mg/kg, Concentration Brain, Compound A 4 mg/kg PO, 0.5 hr): 235 ng/g | concentration at 2 h ([2]; 4 mg/kg, Concentration Brain, Compound A 4 mg/kg PO, 2 hr): 131 ng/g | concentration at 0.5 h ([2]; 4 mg/kg, Concentration Plasma, Compound A 4 mg/kg PO single dose, tissue collection 0.5 hr): 420 nM | concentration at 2 h ([2]; 4 mg/kg, Concentration Plasma, Compound A 4 mg/kg PO single dose, tissue collection 2 hr): 230 nM | concentration at 0.5 h ([2]; 4 mg/kg, Concentration Plasma, Compound A 4 mg/kg PO, 0.5 hr): 154 ng/mL | concentration at 2 h ([2]; 4 mg/kg, Concentration Plasma, Compound A 4 mg/kg PO, 2 hr): 83 ng/mL | concentration at 0.5 h ([2]; 8 mg/kg, Concentration Brain, Compound A 8 mg/kg PO single dose, tissue collection 0.5 hr): 1090 nM
